EP3505218B1, “A GENTLE DETERGENT COMPOSITION FOR GREASY AND ACNEIC SKINS” (Unifarco S.p.A., priority 2017, dated 2019)

Experiments:
[1] = Solubility of the raw material; format: physicochemical; details: needs to be pre-dissolved at 80°C in propylene glycol
[2] = system: Propionibacterium acnes; details: cited from earlier work; for antibacterial / antimicrobial activity against Propionibacterium Acnes: raw material description, PCA ethyl cocoyl arginate at a pH lower than 7

Compound	solubility [1]	effectiveness as antibacterial against Propionibacterium acnes ([2]; compared with other surfactants, US2008/0070986)	antibacterial / antimicrobial activity against Propionibacterium Acnes [2]
CCCCCCCCCCCC(=O)N[C@@H](CCCNC(=N)N)C(=O)O [Lauroyl arginine]	poorly soluble	–	–
Laureth-7 citrate	–	2 magnitude orders less effective	known antibacterial properties
PCA ethyl cocoyl arginate	–	–	antimicrobial activity
